In experiment [1] the target is T1, Alpha-1B adrenergic receptor (Rattus norvegicus, UniProt P15823).
T1 sequence (P15823 whole entry): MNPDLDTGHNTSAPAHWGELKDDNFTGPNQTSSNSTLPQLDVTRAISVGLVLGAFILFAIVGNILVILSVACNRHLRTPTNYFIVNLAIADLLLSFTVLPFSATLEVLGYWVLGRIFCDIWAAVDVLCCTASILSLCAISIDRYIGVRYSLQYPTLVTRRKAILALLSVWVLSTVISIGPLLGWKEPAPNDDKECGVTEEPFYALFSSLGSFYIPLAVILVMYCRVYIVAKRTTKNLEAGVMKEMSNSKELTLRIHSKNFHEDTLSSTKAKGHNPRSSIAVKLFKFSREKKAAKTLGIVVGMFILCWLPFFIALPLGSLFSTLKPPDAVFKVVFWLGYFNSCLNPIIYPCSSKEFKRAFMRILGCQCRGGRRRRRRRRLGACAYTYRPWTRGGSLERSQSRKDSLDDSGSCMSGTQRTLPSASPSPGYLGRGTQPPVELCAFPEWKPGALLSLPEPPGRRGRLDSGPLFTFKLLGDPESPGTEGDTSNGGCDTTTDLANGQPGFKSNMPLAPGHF
In words: DRUGMATRIX: Alpha-1B adrenergic receptor radioligand binding (ligand: prazosin). As to conditions: Not Active = under 50% inhibition at 10 µM. Type of experiment: cell membranes, Wistar, Liver, Membrane.

Experiment [2] deals with Aldo-keto reductase family 1 member B1 (Rattus norvegicus, UniProt P07943). Type of experiment: tissue-based, Lens of camera-type eye.
Another experiment addresses Nitric oxide synthase 1 (Rattus norvegicus, UniProt P29476). Format: tissue-based, Cerebellum.
For another experiment, the target named is T2, Endothelin-1 receptor (Homo sapiens, UniProt P25101). Further: in other assays of this panel Not Active means under 50% inhibition at 10 µM.
T2 sequence (P25101 whole entry): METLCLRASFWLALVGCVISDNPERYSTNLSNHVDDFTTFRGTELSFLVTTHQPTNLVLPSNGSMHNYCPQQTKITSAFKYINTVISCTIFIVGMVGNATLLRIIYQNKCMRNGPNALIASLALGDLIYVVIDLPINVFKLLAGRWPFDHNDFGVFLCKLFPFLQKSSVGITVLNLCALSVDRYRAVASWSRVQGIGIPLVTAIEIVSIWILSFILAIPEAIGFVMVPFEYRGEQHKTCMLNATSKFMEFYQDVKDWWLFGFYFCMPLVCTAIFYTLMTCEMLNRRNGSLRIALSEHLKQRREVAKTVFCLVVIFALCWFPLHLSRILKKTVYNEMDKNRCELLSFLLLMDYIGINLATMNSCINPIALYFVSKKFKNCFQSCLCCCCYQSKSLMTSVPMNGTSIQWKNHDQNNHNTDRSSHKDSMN
Format: cell membranes, Membrane. As to conditions: cho-k1.

The target of experiment [3] is T3, Neuropeptide Y receptor type 1 (Homo sapiens, UniProt P25929). Further: in other assays of this panel Not Active means under 50% inhibition at 10 µM.
T3 sequence (P25929 whole entry): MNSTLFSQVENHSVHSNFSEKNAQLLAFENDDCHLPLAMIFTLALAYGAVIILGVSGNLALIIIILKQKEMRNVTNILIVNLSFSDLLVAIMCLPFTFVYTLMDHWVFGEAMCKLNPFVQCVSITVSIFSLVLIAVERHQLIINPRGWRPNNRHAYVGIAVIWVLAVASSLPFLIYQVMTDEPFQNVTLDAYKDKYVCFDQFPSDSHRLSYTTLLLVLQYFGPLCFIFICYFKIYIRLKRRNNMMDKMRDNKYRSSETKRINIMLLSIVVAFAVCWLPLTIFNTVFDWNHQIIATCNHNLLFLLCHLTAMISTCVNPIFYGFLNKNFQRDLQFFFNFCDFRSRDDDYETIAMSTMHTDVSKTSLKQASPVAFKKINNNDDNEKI
Format: cell membranes, Membrane. As to conditions: sk-n-mc.

The next experiment concerns the target T4, Interstitial collagenase (Homo sapiens, UniProt P03956).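 Further: MMP-1 enzyme inhibition assay using a peptide substrate; in other assays of this panel Not Active means under 50% inhibition at 10 µM.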
T4 sequence (P03956 whole entry): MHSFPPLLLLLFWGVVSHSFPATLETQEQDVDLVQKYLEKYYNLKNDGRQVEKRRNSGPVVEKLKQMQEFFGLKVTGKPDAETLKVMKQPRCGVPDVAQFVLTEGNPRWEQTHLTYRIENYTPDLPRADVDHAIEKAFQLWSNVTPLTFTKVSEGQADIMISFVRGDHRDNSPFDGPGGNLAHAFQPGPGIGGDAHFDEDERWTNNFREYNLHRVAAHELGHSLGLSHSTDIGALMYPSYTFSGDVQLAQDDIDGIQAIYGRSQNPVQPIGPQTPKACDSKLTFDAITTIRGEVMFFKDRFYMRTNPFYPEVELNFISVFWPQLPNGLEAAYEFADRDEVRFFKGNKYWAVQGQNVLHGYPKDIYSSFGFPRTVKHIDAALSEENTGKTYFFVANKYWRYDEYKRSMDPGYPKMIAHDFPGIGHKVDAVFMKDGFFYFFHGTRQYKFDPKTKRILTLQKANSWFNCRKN
Type of experiment: tissue-based, Rheumatoid synovial fibroblasts.

The next experiment deals with Melanocortin receptor 3 (Homo sapiens, UniProt P41968). Format: cell membranes, Membrane. Conditions: hek293.
Sequence of Melanocortin receptor 3 (P41968 whole entry): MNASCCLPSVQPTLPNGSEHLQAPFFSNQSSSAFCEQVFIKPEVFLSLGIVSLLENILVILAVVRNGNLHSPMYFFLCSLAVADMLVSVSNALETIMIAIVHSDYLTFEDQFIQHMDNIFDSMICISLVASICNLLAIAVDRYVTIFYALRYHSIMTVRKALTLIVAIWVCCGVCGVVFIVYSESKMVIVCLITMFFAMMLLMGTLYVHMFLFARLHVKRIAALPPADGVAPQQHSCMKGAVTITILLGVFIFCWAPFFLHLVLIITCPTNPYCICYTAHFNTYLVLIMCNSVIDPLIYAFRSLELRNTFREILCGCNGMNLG
Experiment [4] concerns the target T5, Vasoactive intestinal polypeptide receptor 1 (Homo sapiens, UniProt P32241). Further: in other assays of this panel Not Active means under 50% inhibition at 10 µM.
T5 sequence (P32241 whole entry): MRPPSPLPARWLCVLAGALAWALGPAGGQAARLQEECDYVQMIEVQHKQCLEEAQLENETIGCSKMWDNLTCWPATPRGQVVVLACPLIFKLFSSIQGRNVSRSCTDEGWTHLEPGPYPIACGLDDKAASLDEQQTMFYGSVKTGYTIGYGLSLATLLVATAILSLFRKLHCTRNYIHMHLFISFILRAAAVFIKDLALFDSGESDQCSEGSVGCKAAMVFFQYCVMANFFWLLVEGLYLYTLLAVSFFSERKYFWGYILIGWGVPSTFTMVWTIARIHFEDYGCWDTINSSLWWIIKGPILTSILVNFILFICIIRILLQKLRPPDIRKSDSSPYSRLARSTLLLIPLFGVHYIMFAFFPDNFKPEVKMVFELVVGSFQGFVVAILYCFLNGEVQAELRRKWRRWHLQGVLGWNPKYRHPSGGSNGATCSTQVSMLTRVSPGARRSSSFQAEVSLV
Type of experiment: cell membranes, Membrane. Conditions: ht-29.

Experiment [5] has as its target Mitogen-activated protein kinase 3 (Homo sapiens, UniProt P27361). In words: DRUGMATRIX: Protein Serine/Threonine Kinase, ERK1 enzyme inhibition (substrate: Myelin Basic Protein). Also on record: species or system Escherichia coli. As to conditions: Not Active = under 50% inhibition at 10 µM.
In a further experiment the target is T6, Cathepsin G (Homo sapiens, UniProt P08311).
T6 sequence (P08311 whole entry): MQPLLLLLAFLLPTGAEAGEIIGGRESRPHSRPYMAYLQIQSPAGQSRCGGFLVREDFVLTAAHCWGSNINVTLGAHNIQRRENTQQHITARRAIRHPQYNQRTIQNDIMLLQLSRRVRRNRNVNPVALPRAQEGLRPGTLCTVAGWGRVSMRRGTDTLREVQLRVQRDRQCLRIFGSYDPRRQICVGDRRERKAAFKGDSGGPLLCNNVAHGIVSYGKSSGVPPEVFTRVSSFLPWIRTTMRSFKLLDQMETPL
Type of experiment: tissue-based. As to conditions: neutrophil.

Sequence of Nitric oxide synthase 1 (P29476 whole entry): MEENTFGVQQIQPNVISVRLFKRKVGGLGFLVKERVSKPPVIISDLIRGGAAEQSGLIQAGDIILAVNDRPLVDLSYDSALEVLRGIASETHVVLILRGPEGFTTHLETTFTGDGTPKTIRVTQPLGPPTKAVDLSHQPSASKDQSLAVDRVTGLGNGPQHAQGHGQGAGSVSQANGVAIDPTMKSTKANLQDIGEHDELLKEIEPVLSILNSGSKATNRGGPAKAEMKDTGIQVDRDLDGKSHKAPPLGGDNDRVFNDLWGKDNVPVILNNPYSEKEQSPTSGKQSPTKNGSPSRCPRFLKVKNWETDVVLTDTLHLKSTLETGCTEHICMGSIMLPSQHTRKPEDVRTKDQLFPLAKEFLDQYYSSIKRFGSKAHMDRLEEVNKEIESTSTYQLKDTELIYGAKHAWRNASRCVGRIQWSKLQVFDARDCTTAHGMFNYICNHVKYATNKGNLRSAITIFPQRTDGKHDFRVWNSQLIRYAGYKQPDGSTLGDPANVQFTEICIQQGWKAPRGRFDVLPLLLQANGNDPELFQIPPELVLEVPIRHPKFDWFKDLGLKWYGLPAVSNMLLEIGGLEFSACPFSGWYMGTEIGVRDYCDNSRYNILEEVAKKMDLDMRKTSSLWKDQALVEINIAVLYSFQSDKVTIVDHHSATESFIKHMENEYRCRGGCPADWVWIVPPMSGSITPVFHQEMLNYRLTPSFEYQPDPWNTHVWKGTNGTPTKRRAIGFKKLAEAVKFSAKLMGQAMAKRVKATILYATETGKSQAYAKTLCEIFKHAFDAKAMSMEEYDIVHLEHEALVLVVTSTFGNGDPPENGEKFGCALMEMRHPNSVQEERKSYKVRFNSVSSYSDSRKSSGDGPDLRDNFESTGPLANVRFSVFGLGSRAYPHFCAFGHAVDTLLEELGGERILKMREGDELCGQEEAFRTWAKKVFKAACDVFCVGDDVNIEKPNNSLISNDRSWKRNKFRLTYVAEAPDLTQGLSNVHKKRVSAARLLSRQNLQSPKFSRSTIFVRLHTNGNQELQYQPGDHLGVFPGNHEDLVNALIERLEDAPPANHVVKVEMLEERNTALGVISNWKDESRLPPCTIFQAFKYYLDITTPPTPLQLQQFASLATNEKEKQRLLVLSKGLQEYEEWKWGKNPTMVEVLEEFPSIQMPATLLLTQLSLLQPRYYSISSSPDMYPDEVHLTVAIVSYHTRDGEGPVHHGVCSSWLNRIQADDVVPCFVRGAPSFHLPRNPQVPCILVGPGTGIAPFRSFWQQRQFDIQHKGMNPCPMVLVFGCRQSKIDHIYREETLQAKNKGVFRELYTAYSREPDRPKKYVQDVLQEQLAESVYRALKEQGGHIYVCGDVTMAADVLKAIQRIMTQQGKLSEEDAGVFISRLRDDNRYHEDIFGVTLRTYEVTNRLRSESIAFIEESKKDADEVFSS
Sequence of Mitogen-activated protein kinase 3 (P27361 whole entry): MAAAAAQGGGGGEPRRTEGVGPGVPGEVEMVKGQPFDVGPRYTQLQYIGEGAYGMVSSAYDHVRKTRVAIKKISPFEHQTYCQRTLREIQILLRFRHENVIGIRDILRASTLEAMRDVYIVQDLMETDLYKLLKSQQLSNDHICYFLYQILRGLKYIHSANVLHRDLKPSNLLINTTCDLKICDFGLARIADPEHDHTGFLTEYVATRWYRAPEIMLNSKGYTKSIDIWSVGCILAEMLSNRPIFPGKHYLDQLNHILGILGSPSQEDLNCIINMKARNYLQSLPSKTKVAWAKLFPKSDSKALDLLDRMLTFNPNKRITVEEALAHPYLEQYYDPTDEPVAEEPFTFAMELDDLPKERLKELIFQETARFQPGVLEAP

For `C=C(C)[C@@H]1[C@H]2OC(=O)[C@@H]1[C@]1(O)C[C@H]3O[C@]34C(=O)O[C@H]2[C@]14C` [PICROTOXININ], the IC50 result (in [1]; in experiment [2]; at Nitric oxide synthase 1; at Endothelin-1 receptor; in experiment [3]; at Interstitial collagenase) was “Not Active” each time. Besides, the IC50 entry (against Melanocortin receptor 3; in experiment [4]; in experiment [5]; at Cathepsin G) was “Not Active” each time.

Consider `CN1C(C(=O)Nc2ccccn2)=C(O)c2ccccc2S1(=O)=O` [PIROXICAM], for which the IC50 result (in [1]; in experiment [2]; at Nitric oxide synthase 1; on Endothelin-1 receptor; in experiment [3]; against Interstitial collagenase) was “Not Active” in each case. The IC50 result (on Melanocortin receptor 3; in [4]; in experiment [5]; against Cathepsin G) was “Not Active” each time.

For `CCC1(c2ccccc2)C(=O)NCNC1=O` [PRIMIDONE], the IC50 entry (in [1]; in experiment [2]; at Nitric oxide synthase 1; against Endothelin-1 receptor; in experiment [3]; at Interstitial collagenase) was “Not Active” throughout. Besides, the IC50 entry (on Melanocortin receptor 3; in experiment [4]; in [5]; against Cathepsin G) was “Not Active” each time.

Turning to `CCCc1cc(=O)[nH]c(=S)[nH]1` [PROPYLTHIOURACIL], the IC50 entry (in experiment [1]; in [2]; against Nitric oxide synthase 1; at Endothelin-1 receptor; in [3]; at Interstitial collagenase) was “Not Active” in each case. Further, the IC50 result (at Melanocortin receptor 3; in experiment [4]; in experiment [5]; on Cathepsin G) was “Not Active” each time.

With `COc1ccc(CN(CCN(C)C)c2ccccn2)cc1` [PYRILAMINE], the half-maximal inhibitory concentration (IC50) result (in experiment [1]; in experiment [2]; against Nitric oxide synthase 1; against Endothelin-1 receptor; in experiment [3]; against Interstitial collagenase) was “Not Active” in each case. Also, the IC50 entry (against Melanocortin receptor 3; in [4]; in experiment [5]; at Cathepsin G) was “Not Active” in each case.

Take CARBOPLATIN: the IC50 result (in experiment [1]; in experiment [2]; against Nitric oxide synthase 1; on Endothelin-1 receptor; in experiment [3]; against Interstitial collagenase) was “Not Active” throughout. The IC50 entry (against Melanocortin receptor 3; in [4]; in experiment [5]; at Cathepsin G) was “Not Active” each time. The Ki entry (in experiment [1]; in experiment [2]; at Nitric oxide synthase 1; on Endothelin-1 receptor; in [3]; on Interstitial collagenase) was “Not Active” each time. Moreover, the Ki result (at Melanocortin receptor 3; in experiment [4]; in experiment [5]; on Cathepsin G) was “Not Active” each time.

With CISPLATIN, the concentration for half-maximal inhibition (IC50) entry (in experiment [1]; in experiment [2]; against Nitric oxide synthase 1; against Endothelin-1 receptor; in experiment [3]; against Interstitial collagenase) was “Not Active” each time. Also, the IC50 entry against Melanocortin receptor 3 is “Not Active”; in experiment [4], “Not Active”; in [5] (read-out: IC50), 4.62 µM; at Cathepsin G, “Not Active”. Moreover, the Ki entry (in experiment [1]; in [2]; on Nitric oxide synthase 1; at Endothelin-1 receptor; in experiment [3]; on Interstitial collagenase) was “Not Active” in each case. The Ki entry (on Melanocortin receptor 3; in experiment [4]; on Cathepsin G) was “Not Active” in each case.

As for GOLD SODIUM THIOMALATE, the IC50 result (in [1]; in [2]; against Nitric oxide synthase 1; against Endothelin-1 receptor; in [3]; at Interstitial collagenase) was “Not Active” throughout. For the same molecule, the IC50 entry (against Melanocortin receptor 3; in [4]; in [5]; at Cathepsin G) was “Not Active” each time. The Ki entry (in experiment [1]; in experiment [2]; at Nitric oxide synthase 1; on Endothelin-1 receptor; in [3]; on Interstitial collagenase) was “Not Active” in each case. The Ki result (at Melanocortin receptor 3; in experiment [4]; in [5]; at Cathepsin G) was “Not Active” throughout.

Source of the values: ChEMBL document CHEMBL1909046, “DrugMatrix in vitro pharmacology data”.
